Read-outs that look alike come from different tables or passages of the source.
Key:
[1] = target: T1, serotonin S2 (5-HT2) receptors (Rattus norvegicus, UniProt P14842); assay: inhibition of 3H-ketanserin binding to serotonin S2 (5-HT2) receptors in rat cortex in vitro; details: 3H-ketanserin 0.5 nM, rat cortex membranes, read-out: Binding IC50, 3H Ket.
T1 construct: cortical tissue is dissected and weighed; from tissue; host or cells: cerebral cortex membranes of male Wistar (Mol:Wist) rats
Protocol: Method in Hyttel, Pharmacology & Toxicology, 61, 126-129. 1987.
Male Wistar (Mol:Wist) rats (125-250 g) are sacrifices and cortical tissue is dissected and weighed. The tissue is homogenized (Ultra Turrax, 10 sec.) in 10 ml of ice-cold 50 mM tris buffer pH 7.7 (at 25° C.). The centrifuge glassware used in this step has been rinsed by sonication for 10 min. in ethanol. The homogenate is centrifuged twice at 20,000 g for 10 min. at 4° C. with rehomogenization of the pellet in 10 ml ice-cold buffer. The final pellet is homogenized in 500 vol (w/v) ice-cold buffer.
Incubation tubes kept on ice in triplicate receive 100 μl of drug solution in water (or water for total binding) and 2000 μl of tissue suspension (final tissue content corresponds to 4 mg original tissue). […] After incubation for 30 min. the samples are filtered under vacuum (0-50 mBar) through Whatman GF/F filters (25 mm). The tubes are rinsed with 5 ml ice-cold buffer which are then poured on the filters. Thereafter, the filters are washed with 2×5 ml of buffer. The filters are placed in counting vials and 4 ml of appropriate scintillation fluid (e.g., Picofluor™15) are added. After shaking for 1 h and storage 2 hrs in the dark the content of radioactivity is determined by liquid scintillation counting. Specific binding is obtained by subtracting the nonspecific binding in the presence of 1 μM mianserin. For determination of the inhibition of binding five concentrations of drugs covering 3 decades are used.
The IC50 value is determined as the concentration at which the binding is 50% of the total binding in control samples minus the nonspecific binding in the presence of 1 μM mianserin.

dopamine D-2 receptors = target: T2, dopamine D-2 receptors (Rattus norvegicus, UniProt P61169); assay: inhibition of 3H-spiperone binding to dopamine D-2 receptors in rat corpus striatum in vitro
T2 construct: striatal tissue is dissected and weighed; from tissue; host or cells: corpus striatum membranes of male Wistar rats
T2 sequence (P61169 whole entry): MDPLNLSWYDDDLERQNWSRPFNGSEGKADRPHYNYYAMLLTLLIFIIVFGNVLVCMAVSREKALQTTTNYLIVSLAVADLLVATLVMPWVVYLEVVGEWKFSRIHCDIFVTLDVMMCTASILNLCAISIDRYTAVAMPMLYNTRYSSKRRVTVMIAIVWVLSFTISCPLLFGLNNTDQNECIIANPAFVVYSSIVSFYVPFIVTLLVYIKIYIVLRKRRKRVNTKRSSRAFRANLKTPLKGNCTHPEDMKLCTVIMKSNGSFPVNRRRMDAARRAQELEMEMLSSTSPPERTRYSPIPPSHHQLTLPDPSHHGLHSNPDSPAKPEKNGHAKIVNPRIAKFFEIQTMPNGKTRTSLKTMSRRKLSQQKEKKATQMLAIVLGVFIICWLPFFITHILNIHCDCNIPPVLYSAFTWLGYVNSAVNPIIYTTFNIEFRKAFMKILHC
Protocol: INHIBITION OF ^3 H-SPIPERONE BINDING TO DOPAMINE D-2 RECEPTORS IN RAT CORPUS STRIATUM IN VITRO
By this method the inhibition by drugs of the binding of ^3 H-spiperone (0.5 nM) to dopamine D-2 receptors in membranes from rat corpus striatum is determined in vitro. Method and results in Hyttel and Larsen, J. Neurochem, 44, 1615-1622, 1985).
Male Wistar (Mol:Wistar) rats (125-250 g) are sacrificed and striatal tissue is dissected and weighed. The tissue is homogenized (Ultra Turrax, 10 sec.) in 10 ml of ice-cold 50 mM K-phosphate buffer pH 7.4 (at 25° C.). The homogenate is centrifuged twice at 20,000 g for 10 min. at 4° C. with rehomogenization of the pellet in 10 ml ice-cold buffer. The final pellet is homogenized in 1300 vol (w/v) ice-cold buffer.
Incubation tubes kept on ice in triplicate receive 100 μl of drug solution in water (or water for total binding) and 4000 μl of tissue suspension (final tissue content corresponds to 3.08 mg original tissue). The binding experimental is initiated by addition of 100 μl of ^3 H-spiperone (final concentration 0.5 nM) and by placing the tubes in a 37° C. water bath. After incubation for 10 min. the samples are filtered under vacuum (0-50 mBar) through Whatman GF/F filters (25 mm). The tubes are rinsed with 5 ml ice-cold buffer which are then poured on the filters. Thereafter, the filters are washed with 2×5 ml of buffer. The filters are placed in counting vials and 4 ml of appropriate scintillation fluid (e.g. Picofluor ™15) are added. After shaking for 1 h and storage 2 hrs in the dark the content of radioactivity is determined by liquid scintillation counting. Specific binding is obtained by subtracting the nonspecific binding in the presence of 10 μM of 6,7-ADTN.
For determination of the inhibition of binding five concentrations of drugs covering 3 decades are used.
England, specific activity 15-25 Ci/mmol.

[2] = 3H-spiperone 0.5 nM, rat corpus striatum membranes, in vitro, read-out: Binding IC50, 3H Spi.

T1 sequence (P14842 whole entry): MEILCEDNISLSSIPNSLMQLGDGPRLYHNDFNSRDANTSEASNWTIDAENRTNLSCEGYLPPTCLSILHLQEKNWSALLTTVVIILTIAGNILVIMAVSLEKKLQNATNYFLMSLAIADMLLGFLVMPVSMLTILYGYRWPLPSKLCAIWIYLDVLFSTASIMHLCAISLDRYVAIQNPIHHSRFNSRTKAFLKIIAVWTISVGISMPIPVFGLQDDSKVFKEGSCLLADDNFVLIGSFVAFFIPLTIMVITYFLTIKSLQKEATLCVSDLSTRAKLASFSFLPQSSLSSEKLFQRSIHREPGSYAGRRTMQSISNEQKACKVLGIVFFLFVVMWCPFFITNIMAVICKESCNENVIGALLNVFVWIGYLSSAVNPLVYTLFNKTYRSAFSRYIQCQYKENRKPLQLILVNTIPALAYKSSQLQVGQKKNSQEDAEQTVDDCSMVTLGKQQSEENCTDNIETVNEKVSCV

SMILES: Cc1ccc2c(C3=CCN(CCN4CCN(C(C)C)C4=O)CC3)cn(-c3ccc(F)cc3)c2c1 [Compound 2b, 1-(4-fluorophenyl)-6-methyl-3-[1-[2-[3-(2-propyl)-2-imidazolidinon-1-yl]ethyl]-1,2,3,6-tetrahydropyridin-4-yl]-1H-indole]
- IC50 [1]: 1.9 nM
- IC50 (dopamine D-2 receptors): 67 nM

SMILES: O=C1NCCN1CCN1CCC(c2cn(-c3ccc(F)cc3)c3cc(C(F)(F)F)ccc23)CC1 [Compound 4d, 1-(4-fluorophenyl)-3-[1-[2-(2-imidazolidinon-1-yl)ethyl]-4-piperidyl]-6-trifluoromethyl-1H-indole]
- IC50 [1]: 1.7 nM

SMILES: OCCN1CCC(c2cn(-c3ccc(F)cc3)c3cc(Cl)ccc23)CC1 [Compound 4f, 6-chloro-1-(4-fluorophenyl)-3-[1-(2-hydroxyethyl)-4-piperidyl]-1H-indole]
- IC50 [1]: 11 nM

SMILES: O=C1NCCN1CCN1CCC(c2cn(-c3ccc(F)cc3)c3cc(Br)ccc23)CC1 [Compound 4h, 6-bromo-1-(4-fluorophenyl)-3-[1-[2-(2-imidazolidinon-1-yl)ethyl-]-4-piperidyl]-1H-indole]
- IC50 [1]: 1.8 nM

SMILES: COc1ccc2c(C3CCN(CCN4CCOC4=O)CC3)cn(-c3ccc(F)cc3)c2c1 [Compound 4j, 1-(4-fluorophenyl)-6-methoxy-3-[1-[2-(2-oxazolidinon-1-yl]ethyl]-4-piperidyl]-1H-indole]
- IC50 [1]: 40 nM
- IC50 (dopamine D-2 receptors; [2]): 1100 nM

SMILES: CC(C)N1CCN(CCN2CCC(c3cn(-c4ccc(F)cc4)c4cc(S(C)(=O)=O)ccc34)CC2)C1=O [Compound 4k, 1-(4-fluorophenyl)-6-methylsulfonyl-3-[1-[2-[3-(2-propyl)-2-imidazolidinon-1-yl]ethyl]-4-piperidyl]-1H-indole]
- IC50 [1]: 9 nM
- IC50 (dopamine D-2 receptors; [2]): 600 nM

SMILES: CC(C)N1CCN(CCN2CCC(c3cn(-c4ccc(F)cc4)c4cc(Br)ccc34)CC2)C1=O [Compound 5b, 6-bromo-1-(4-fluorophenyl)-3-[1-[2-[3-(2-propyl)-2-imidazolidinon-1-yl]ethyl]-4-piperidyl]-1H-indole]
- IC50 [1]: 2 nM

SMILES: CC(C)c1ccc2c(C3CCN(CCN4CCNC4=O)CC3)cn(-c3ccc(F)cc3)c2c1 [Compound 5d, 1-(4-fluorophenyl)-6-(2-propyl)-3-[1-[2-(2-imidazolidinon-1-yl)ethyl]-4-piperidyl]-1H-indole]
- IC50 [1]: 18 nM

SMILES: CC(C)N1CCN(CCN2CCC(c3cn(-c4ccc(F)cc4)c4cc(Cl)c(Cl)cc34)CC2)C1=O [Compound 5e, 5,6-dichloro-1-(4-fluorophenyl)-3-[1-[2-[3-(2-propyl)-2-imidazolidinon-1-yl]ethyl]-4-piperidyl]-1H-indole]
- IC50 [1]: 3.4 nM

SMILES: CC(C)N1CCN(CCN2CCC(c3cn(-c4ccc(F)cc4)c4cc5c(cc34)CCC5)CC2)C1=O [Compound 5g, 1-(4-fluorophenyl)-3-[1-[2-[3-(2-propyl)-2-imidazolidinon-1-yl]ethyl]-4-piperidyl]-1,5,6,7-tetrahydrocyclopent[f]-1H-indole]
- IC50 [1]: 3.2 nM

SMILES: O=C1NCCN1CCN1CCC(c2cn(-c3ccc(F)cc3)c3cc4c(cc23)CCC4)CC1 [Compound 5h, 1-(4-fluorophenyl)-3-[1-[2-(2-imidazolidinon-1-yl)ethyl]-4-piperidyl]-1,5,6,7-tetrahydrocyclopent[f]-1H-indole]
- IC50 [1]: 1.2 nM

SMILES: CNC(=S)NCCN1CCC(c2cn(-c3ccc(F)cc3)c3cc(Cl)ccc23)CC1 [Compound 9c, 6-chloro-1-(4-fluorophenyl)-3-[1-[2-(3-methyl-1-thioureido)-1-ethyl]-4-piperidyl]-1H-indole]
- IC50 [1]: 12 nM

SMILES: CCN(CCN1CCC(c2cn(-c3ccc(F)cc3)c3cc(Cl)ccc23)CC1)C(=O)N(C)C [Compound 9e, 6-chloro-3-[1-[2-(3,3-dimethyl-1-ethyl-1-ureido)-1-ethyl]-4-piperidyl]-1-(4-fluorophenyl)-1H-indole]
- IC50 [1]: 6.4 nM

SMILES: CN(C)C(=S)NCCN1CCC(c2cn(-c3ccc(F)cc3)c3cc(Cl)ccc23)CC1 [Compound 9f]
- IC50 [1]: 2.5 nM

SMILES: CC(C)N(C)C(=O)NCCN1CCC(c2cn(-c3ccc(F)cc3)c3cc(Cl)ccc23)CC1 [Compound 9g, 6-chloro-1-(4-fluorophenyl)-3-[1-[2-[3-methyl-3-(2-propyl)-1-ureido]-1-ethyl]-4-piperidyl]-1H-indole]
- IC50 [1]: 6.2 nM

SMILES: CNC(=O)N(C)CCN1CCC(c2cn(-c3ccc(F)cc3)c3cc(Cl)ccc23)CC1 [Compound 9h, 6-chloro-1-(4-fluorophenyl)-3-[1-[2-(1,3-dimethyl-1-ureido)-1-ethyl]-4-piperidyl]-1H-indole]
- IC50 [1]: 1.6 nM

SMILES: CC(C)NC(=O)N(C)CCN1CCC(c2cn(-c3ccc(F)cc3)c3cc(Cl)ccc23)CC1 [Compound 9i, 6-chloro-1-(4-fluorophenyl)-3-[1-[2-(1-methyl-3-(2-propyl)-1-ureido)-1-ethyl]-4-piperidyl]-1H-indole]
- IC50 [1]: 2.2 nM

SMILES: CC(=O)NCCN1CCC(c2cn(-c3ccc(F)cc3)c3cc(Cl)ccc23)CC1 [Compound 9j]
- IC50 [1]: 11 nM

SMILES: CCOC(=O)NCCN1CCC(c2cn(-c3ccc(F)cc3)c3cc(Cl)ccc23)CC1 [Compound 9k]
- IC50 [1]: 4 nM

SMILES: CN(C)C(=O)NCCN1CCC(c2cn(-c3ccc(F)cc3)c3cc(Cl)ccc23)CC1 [Compound 9l, 6-chloro-3-[1-[2-(3,3-dimethyl-1-ureido)-1-ethyl]-4-piperidyl]-1-(4-fluorophenyl)-1H-indole]
- IC50 [1]: 1.3 nM

SMILES: Fc1ccc(-n2cc(C3CCN(CCN4CCNC4=S)CC3)c3ccc(Cl)cc32)cc1 [Compound 12a, 6-chloro-1-(4-fluorophenyl)-3-[1-[2-(2-imidazolidinthion-1-yl)ethyl]-4-piperidyl]-1H-indole]
- IC50 [1]: 6.2 nM

SMILES: CC(C)N1CCN(CCN2CCC(c3cn(-c4ccccc4)c4cc(Cl)ccc34)CC2)C1=O [Compound 15k, 6-chloro-1-phenyl-3-[1-[2-[3-(2-propyl)-2-imidazolidinon-1-yl]ethyl]-4-piperidyl]-1H-indole]
- IC50 [1]: 4.5 nM

SMILES: CC(C)n1ccn(CCN2CCC(c3cn(-c4ccc(F)cc4)c4cc(Cl)ccc34)CC2)c1=O [Compound 17a, 6-chloro-1-(4-fluorophenyl)-3-[1-[2-[3-(2-propyl)imidazol-2-on-1-yl]ethyl]-4-piperidyl]-1H-indole]
- IC50 [1]: 4.6 nM

SMILES: O=C1N(CCO)CCN1CCN1CCC(c2cn(-c3ccc(F)cc3)c3cc(Cl)ccc23)CC1 [Compound 18a, 6-chloro-1(4-fluorophenyl)-3-[1-[2-[3-(2-hydroxyethyl)-2-imidazolidinon-1-yl]e-thyl]-4-piperidyl]-1H-indole]
- IC50 [1]: 2.5 nM

SMILES: CSc1ccc2c(C3CCN(CCN4CCN(C(C)C)C4=O)CC3)cn(-c3ccc(F)cc3)c2c1 [Compound 19a, 1-(4-fluorophenyl)-6-methylthio-3-[1-[2-[3-(2-propyl)-2-imidazolidinon-1-yl]ethyl]-4-piperidyl]-1H-indole]
- IC50 [1]: 3.2 nM

SMILES: CC(C)N1CCN(CCN2CCC(C3CN(c4ccc(F)cc4)c4cc(Cl)ccc43)CC2)C1=O (stereo not drawn) [Compound 21a, 6-chloro-1-(4-fluorophenyl)-3-[1-[2-[3-(2-propyl)-2-imidazolidinon-1-yl]ethyl]-4-piperidyl]-2,3-dihydro-1H-indole]
- IC50 [1]: 9.6 nM

SMILES: Cc1c(C2=CCN(CCN3CCNC3=O)CC2)c2ccccc2n1-c1ccc(F)cc1 [Compound 24b, 1-(4-fluoropheyl)-3-[1-[2-(2-imidazolidinon-1-yl)ethyl]-1,2,3,6tetrahydropyridin-4-yl]-2-methyl-1H-indole]
- IC50 [1]: 1 nM
